The subject of series [1] is HUVEC. Briefly: Antiproliferative against HUVEC cells assessed as cell viability after 96 hrs by MTT assay. In kind it is functional, cell-based. The settings on record: Homo sapiens.
A further series relates to A549. The experiment in a line: Antiproliferative against human A549 cells assessed as cell viability up to 1000 nM after 96 hrs by MTT assay. In kind it is functional.
In series [2] the test system is HepG2. The experiment in a line: Antiproliferative against human HepG2 cells assessed as cell viability up to 1000 nM after 96 hrs by MTT assay. In kind it is functional.
Series [3] concerns the target Methionine aminopeptidase 2 (Homo sapiens) (UniProt P50579). Briefly: Binding affinity to MetAP2 in fumagillin-pretreated HUVEC at 0.1 uM by Western blotting analysis.
Series [4] is described as follows: Antiproliferative against human Bel7402 cells assessed as cell viability up to 1000 nM after 96 hrs by MTT assay. In kind it is functional, Bel-7402.
Series [5] deals with Methionine aminopeptidase 2 (Homo sapiens) (UniProt P50579). The experiment in a line: Binding affinity to MetAP2 in compound pre-treated HUVEC at 0.1 uM after 48 hrs by Western blotting analysis.
Sequence of Methionine aminopeptidase 2 (Homo sapiens) (P50579 2-478 limits assumed): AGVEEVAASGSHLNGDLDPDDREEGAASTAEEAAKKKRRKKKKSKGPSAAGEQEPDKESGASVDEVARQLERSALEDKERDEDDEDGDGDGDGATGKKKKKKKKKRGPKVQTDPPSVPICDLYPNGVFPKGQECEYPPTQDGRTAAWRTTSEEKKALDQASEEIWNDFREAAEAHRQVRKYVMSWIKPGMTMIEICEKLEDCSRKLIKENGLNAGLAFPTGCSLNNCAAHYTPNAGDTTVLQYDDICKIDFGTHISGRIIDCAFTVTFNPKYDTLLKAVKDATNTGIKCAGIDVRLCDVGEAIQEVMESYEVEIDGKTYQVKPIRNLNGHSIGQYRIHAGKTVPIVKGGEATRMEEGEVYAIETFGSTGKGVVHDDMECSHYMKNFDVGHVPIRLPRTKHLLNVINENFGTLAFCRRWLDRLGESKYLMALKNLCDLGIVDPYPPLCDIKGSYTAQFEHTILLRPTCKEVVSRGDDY
Series [6] has the same target. Briefly: Binding affinity to MetAP2 in HUVEC at 0.1 uM by Western blotting analysis.
The test system of another series is MCF7. Briefly: Antiproliferative against human MCF7 cells assessed as cell viability up to 1000 nM after 96 hrs by MTT assay. In kind it is functional.
Series [7] in a line: Antiproliferative against human Bel7402 cells assessed as cell viability after 96 hrs by MTT assay. In kind it is functional, cell-based. The following applies: Bel-7402, 96 h.
The test system of series [8] is HepG2. The experiment in a line: Antiproliferative against human HepG2 cells assessed as cell viability after 96 hrs by MTT assay. In kind it is functional, cell-based. The settings on record: HepG2, 96 h.
Series [9] has as its system HepG2. The experiment in a line: Stability in human HepG2 assessed as compound bound MetAP2 level at 0.1 uM by Western blotting analysis. In kind it is ADME, cell-based. The settings on record: hepg2, 0.1 µM.
Series [10] has as its system HUVEC. The experiment in a line: Stability in HUVEC assessed as compound bound MetAP2 level at 0.1 uM by Western blotting analysis. In kind it is ADME, cell-based. The following applies: human.

Activity calls are given as the source filed them. No cut-off for these calls is given here.

Take `CO[C@@H]1[C@H](OC(=O)NCCCCCCCCNC(=O)CCCC[C@@H]2SC[C@@H]3NC(=O)N[C@@H]32)CC[C@]2(CO2)[C@H]1[C@@]1(C)O[C@@H]1CC=C(C)C`: in the series on HUVEC [1], the IC50 stood at 9.8 nM. In addition, the “inhibition (INH)” value (with A549; in the series with HepG2 [2]; in series [4]; in the series on MCF7) was less than 50% each time. Further, the result in series [3] and in series [5] was inactive. The outcome in [6] was Active.

Regarding `COc1cccc2c1C(=O)c1c(O)c3c(c(O)c1C2=O)C[C@@](O)(C(=O)CO)C[C@@H]3O[C@H]1C[C@H](N)[C@H](O)[C@H](C)O1` [DOXORUBICIN], the values for the IC50 (in series [7]; in the series on HepG2 [8]) were 578 nM and 20.2 nM, respectively.

For `CO[C@@H]1[C@H](OC(=O)/C=C/C=C/C=C/C=C/C(=O)O)CC[C@]2(CO2)[C@H]1[C@@]1(C)O[C@@H]1CC=C(C)C` [FUMAGILLIN], in the series on HUVEC [1], the IC50 stood at 6.6 nM. The “inhibition (INH)” value (with A549; with HepG2 [2]; in series [4]; in the series on MCF7) was less than 50% throughout.

Take `CO[C@@H]1[C@H](OC(=O)NCCNC(=O)OCCOCCOCCOCCOCCOCCOC(=O)NCCCC[C@@H]2SC[C@@H]3NC(=O)N[C@@H]32)CC[C@]2(CO2)[C@H]1[C@@]1(C)O[C@@H]1CC=C(C)C`: the IC50 in the series on HUVEC [1] is 60 nM. For the same compound, the “inhibition (INH)” value (with A549; with HepG2 [2]; in series [4]; in the series on MCF7) was less than 50% in each case. Moreover, the Stability entry with HepG2 [9] and with HUVEC [10] was “Stable” throughout.

These data come from ChEMBL document CHEMBL3232742, “Design, synthesis and evaluation of a cellular stable and detectable biotinylated fumagillin probe and investigation of cell permeability of fumagillin and its analogs to endothelial and cancer cells” (Eur J Med Chem, 2013).
